Assay results taken from patent publication US20070213359A1 (ACADIA Pharmaceuticals Inc., priority 2005, published 2007).
Like-named read-outs stand apart in the source and are kept apart here.

What was measured:
GHSR1a receptor = molecular target: T1, GHSR1a receptor (Homo sapiens, UniProt Q92847); experiment: 125I-Ghrelin binding assay; details: displacement of 125I-ghrelin (0.053 nM), membranes of HEK293 cells transfected with GHSR1a, Cheng-Prussoff, '—' not defined
T1 construct: expressed in transfected cells; host or cells: HEK293 (membranes)
T1 sequence (Q92847 whole entry): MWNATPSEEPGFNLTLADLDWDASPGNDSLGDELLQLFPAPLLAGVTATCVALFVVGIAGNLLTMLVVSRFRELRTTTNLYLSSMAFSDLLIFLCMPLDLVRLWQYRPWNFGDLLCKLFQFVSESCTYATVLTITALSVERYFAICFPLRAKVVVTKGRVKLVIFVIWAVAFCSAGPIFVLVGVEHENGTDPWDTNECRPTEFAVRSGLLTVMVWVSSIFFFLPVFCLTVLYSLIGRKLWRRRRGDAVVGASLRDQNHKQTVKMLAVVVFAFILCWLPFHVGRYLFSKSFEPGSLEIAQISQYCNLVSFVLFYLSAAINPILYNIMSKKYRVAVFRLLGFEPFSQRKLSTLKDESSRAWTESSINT
Method: Plasmid DNA containing the GHSR1a receptor (12.5 ug/dish) in 0.675 ml DMEM was transfected into the cells by mixing with 180 ul PolyFect, 15 min later mixing in 2.25 ml 10% CS/DMEM, and transferring the mixture into the dish. At 16-18 h post transfection, medium was replaced with 25 ml fresh 10% FCS/1% PSG/DMEM to each dish for another 18-20 h. At approximately 48 hours post-transfection, cells were harvested in ice-cold membrane buffer (20 mM HEPES, 6 mM MgCl2, 1 mM EDTA, pH to 7.2) using a cell scraper, and pelleted by centrifugation.
Pelleted cells were added to a nitrogen cavitation chamber and 900 bar of pressure applied for 30 min. The pressure was slowly released the cavitated cells collected in 50 ml falcon tubes. The tubes were centrifuged at 1000 rpm, 4° C. for 10 min, and the supernatant collected. This centrifugation and collection was repeated two more times until the supernatant was free of precipitate (membranes are still in suspension). The supernatant was poured into a 50 ml centrifuge tube and centrifuged at 10.000 rpm, 4° C. for 20 min. The supernatant was discarded and the pellet re-suspended in 750 μl membrane binding buffer using a chilled 1 ml syringe with 25G5/8 needle to re-suspend membranes. The protein concentration was determined using the BioRad Protein Assay Dye Reagent according to the manufacturers instructions. The protein concentration was adjusted to 5 mg/ml and aliquots snap-frozed and stored at −80 C until use.
Membranes were thawed rapidly; diluted with binding buffer (25 mM Hepes+5 mM MgCl2, 1 mM CaCl2, 2.5 mM EDTA and 0.2% BSA) to a protein concentration of 0.8 ug/30 ul and placed on ice. 96-well plates (U-bottom wells) were prepared with serial dilutions (8 doses, 40 ul/w) of the test compounds. Membranes (30 uL/well) were then added, and incubated with test ligands for 30 min at room temperature with shaking. […] Binding was terminated by filtration through GF/B filters (presoaked with 0.1% polyethylenimine) with a Brandel 96-well harvester. The filters were washed with ice-cold binding buffer (150 ml/plate) and allowed to air-dry for 30 min. 50 ul MicroScient-20 cocktail was added to each dried well, the plates were sealed, and counted for 2 min/well using a TopCount scintillation counter (Packard).

Ghrelin receptor = Ghrelin receptor (Homo sapiens, UniProt Q92847); experiment: Receptor Selection and Amplification Technology (R-SAT) assay; format: cell-based; set-up: expressed in transfected cells; host or cells: NIH3T3; details: for IC50: '—' not defined (nd used separately), read-out: RSAT pIC50 (converted); for Emax: read-out: RSAT Eff(%)
Sequence of Ghrelin receptor (Q92847 whole entry): as above

[1] = read-out: Binding pKi (converted)
[2] = negative logarithm of ligand concentration causing 50% inhibition of constitutive receptor response, transfected NIH3T3 cells
[3] = percent inhibition at saturating ligand, normalized to reference ligand Substance P analog = 100%

| SMILES | Ki (GHSR1a receptor; [1]) [nM] | IC50 (Ghrelin receptor; [2]) [nM] | Emax (Ghrelin receptor; [3]) [%] | IC50 (Ghrelin receptor; […]) [nM] | Emax (Ghrelin receptor) [%] | RSAT Eff(%) (Ghrelin receptor; [3]) | Ki (GHSR1a receptor; Binding pKi) [nM] |
| --- | --- | --- | --- | --- | --- | --- | --- |
| CCc1cccc2c(C(C)=O)cn(CCCN3CCC(Oc4cccc(Cl)c4)CC3)c12 | 31.6 | 1.58 | 118 |  |  |  |  |
| COc1cccc2c(C(=O)c3ccccc3)cn(CCCN3C4CCC3CC(Oc3ccc(F)cc3)C4)c12 (centres unmarked) | 158 |  |  | 12.6 | 106 |  |  |
| CC(=O)c1cn(CCCN2C3CCC2CC(CCc2ccccc2)C3)c2ccccc12 (centres unmarked) [drawing 433] | 1580 | 63.1 |  |  |  | 96 |  |
| CC(=O)c1cn(CCCN2C3CCC2CC(CCc2ccccc2)C3)c2c(Br)cccc12 (centres unmarked) | 79.4 | 7.94 | 107 |  |  |  |  |
| COc1ccc(C(=O)OC2C[C@H]3CC[C@@H](C2)N3CCCn2cc(C(C)=O)c3cccc(OC)c32)cc1OC (some centres unmarked) | 1000 | 50.1 |  |  | 104 |  |  |
| COc1cccc2c(C(=O)NCC(C)C)cn(CCCN3CCCN(Cc4ccc(F)cc4)CC3)c12 |  |  |  | 25.1 | 118 |  | 100 |
| CCCCC1CCN(CCCn2cc(C(C)=O)c3cccc(OC)c32)CC1 | 1580 | 20 | 116 |  |  |  |  |
| COc1cccc2c(C(=O)c3ccccc3)cn(CCCN3CCN(CCOc4ccc(Cl)cc4)CC3)c12 |  |  |  | 1000 | 66 |  | 126 |
| CC(=O)c1cn(CCCN2CCC(Oc3ccc(F)cc3)CC2)c2c(Cl)cccc12 | 2000 | 39.8 | 120 |  |  |  |  |
| CCCCC[C@H]1C[C@H]2CC[C@@H](C1)N2CCCn1cc(C(C)=O)c2cccc(OC)c21 | 316 | 2 |  |  |  | 113 |  |
| CC(=O)c1cn(CCCN2CCC(Oc3ccccc3Cl)CC2)c2c(C)cccc12 | 631 | 20 | 110 |  |  |  |  |
| COc1cccc2c(C(C)=O)cn(CCCN3CCN(c4ccc(C(F)(F)F)cc4)CC3)c12 | 251 | 25.1 | 92 |  |  |  |  |
| COc1cccc2c(C(=O)C3CC3)cn(CCCN3C4CCC3CC(Oc3ccc(Cl)cc3)C4)c12 (centres unmarked) |  |  |  | 3.98 | 86 |  | 158 |
| CCCCC[C@H]1C[C@H]2CC[C@@H](C1)N2CCCn1cc(C(C)=O)c2cccc(Br)c21 | 158 | 1.26 | 81 |  |  |  |  |
| COc1cccc2c(C(=O)NCC(C)C)cn(CCCN3CCC(Oc4ccc(F)cc4)CC3)c12 | 126 | 1.58 |  |  | 90 |  |  |
| COc1ccccc1C1CCN(CCCn2cc(C(=O)C3CC3)c3cccc(OC)c32)CC1 |  |  |  | 5.01 | 102 |  | 158 |
| O=C(CC1CC2CCC(C1)N2CCCn1cc(C(=O)C(F)(F)F)c2cccnc21)c1ccc(Cl)cc1 (centres unmarked) | 631 |  | 10 |  |  |  |  |
| COc1ccccc1C1CCN(CCCn2cc(C(C)=O)c3ccccc32)CC1 [drawing 576] | 1260 | 501 |  |  |  | 106 |  |
| COc1cccc2c(C(=O)NCC(C)C)cn(CCCN3C4CCC3CC(CC(=O)c3ccccc3)C4)c12 (centres unmarked) |  |  |  | 7.94 | 145 |  | 50.1 |
| CC(=O)c1cn(CCCN2C3CCC2CC(Oc2ccc(Cl)cc2)C3)c2c(Cl)cccc12 (centres unmarked) | 1000 | 50.1 | 104 |  |  |  |  |
| CCCOC1CCN(CCCn2cc(C(=O)CC)c3cc(Br)ccc32)CC1 |  |  |  | 158 | 90 |  | 10000 |
| COc1cccc2c(C(=O)Cc3ccccc3)cn(CCCN3C4CCC3CC(CCc3ccccc3)C4)c12 (centres unmarked) | 10 |  |  | 0.251 | 141 |  |  |
| COc1cccc2c(C(=O)Cc3ccccc3)cn(CCCN3CCCC(Cc4ccccc4Cl)C3)c12 (centres unmarked) | 126 |  |  | 25.1 | 116 |  |  |
| COc1cccc2c(C(C)=O)cn(CCCN3CCC(C(=O)c4ccccc4)CC3)c12 | 2000 | 39.8 |  |  |  | 98 |  |
| COc1cccc2c(C(=O)C3CC3)cn(CCCN3C4CCC3CC(CCc3ccc(Cl)cc3)C4)c12 (centres unmarked) |  |  |  | 3.98 | 103 |  | 20 |
| COc1ccccc1C1CCN(CCCn2cc(C(=O)c3ccccc3)c3cccc(OC)c32)CC1 | 158 |  |  | 12.6 | 88 |  |  |
